pIC50: −log10 of the molar value. Active and inactive are the calls of the source. The rule behind the calls is not given here.
Columns and labels:
[1] = tested on: CCC-HPF-1; test: Anti-pulmonary fibrosis activity against TGF-beta1 stimulated human CCC-HPF-1 cells assessed as reduction in Smad2 phosphorylation incubated for 48 hrs by Western blotting analysis; assay type: functional, cell-based; conditions: dose 5-20 µM
[2] = tested on: LX-2; test: Anti-hepatic fibrosis activity against TGF-beta1 stimulated human LX2 cells assessed as reduction in alpha-SMA protein expression level at 5 to 20 uM incubated for 48 hrs by Western blotting analysis; assay type: functional, cell-based; conditions: dose 5-20 µM
[3] = tested on: CCC-HPF-1; test: Anti-pulmonary fibrosis activity against TGF-beta1 stimulated human CCC-HPF-1 cells assessed as reduction in COL1A1 protein expression level at 5 to 20 uM incubated for 48 hrs by Western blotting analysis; assay type: functional, cell-based; conditions: dose 5-20 µM
[4] = tested on: CCC-HPF-1; test: Effect on total Smad3 level in TGF-beta1 stimulated human CCC-HPF-1 cells at 5 to 20 uM incubated for 48 hrs by Western blotting analysis; assay type: functional, cell-based; conditions: dose 5-20 µM
[5] = target: T1, Autotaxin (Homo sapiens, UniProt Q13822); test: Potency index, ratio of GLPG-1690 IC50 to test compound IC50 for inhibition of human ATX in using LPC as substrate by fluorescence based microplate reader assay
[6] = tested on: CCC-HPF-1; test: Anti-migratory activity against TGF-beta1 stimulated human CCC-HPF-1 cells at 10 uM incubated for 24 hrs by light microscopic analysis; assay type: functional, cell-based
[7] = tested on: LX-2; test: Anti-migratory activity against TGF-beta1 stimulated human LX2 cells at 10 uM incubated for 24 hrs by light microscopic analysis; assay type: functional, cell-based
[8] = tested on: LX-2; test: Cytotoxicity against human LX2 cells assessed as reduction in cell viability at 2.5 to 80 uM incubated for 48 hrs by MTT assay; assay type: toxicity, cell-based; conditions: lx-2, 48 h, dose 2.5-80 µM
[9] = tested on: LX-2; test: Anti-hepatic fibrosis activity against TGF-beta1 stimulated human LX2 cells assessed as inhibition of Smad2/3 nuclear translocation at 10 uM incubated for 48 hrs by DAPI staining based immunofluorescence analysis; assay type: functional, cell-based
[10] = tested on: LX-2; test: Anti-hepatic fibrosis activity against TGF-beta1 stimulated human LX2 cells assessed as reduction in COL1A1 protein expression level at 5 to 20 uM incubated for 48 hrs by Western blotting analysis; assay type: functional, cell-based; conditions: dose 5-20 µM
[11] = tested on: CCC-HPF-1; test: Anti-pulmonary fibrosis activity against TGF-beta1 stimulated human CCC-HPF-1 cells assessed as inhibition of Smad2/3 nuclear translocation at 10 uM incubated for 48 hrs by DAPI staining based immunofluorescence analysis; assay type: functional, cell-based
[12] = tested on: CCC-HPF-1; test: Effect on total Smad2 level in TGF-beta1 stimulated human CCC-HPF-1 cells at 5 to 20 uM incubated for 48 hrs by Western blotting analysis; assay type: functional, cell-based; conditions: dose 5-20 µM
[13] = tested on: CCC-HPF-1; test: Cytotoxicity against human CCC-HPF-1 cells assessed as reduction in cell viability at 2.5 to 80 uM incubated for 48 hrs by MTT assay; assay type: toxicity, cell-based; conditions: ccc-hpf-1, 48 h, dose 2.5-80 µM
[14] = tested on: CCC-HPF-1; test: Anti-pulmonary fibrosis activity against TGF-beta1 stimulated human CCC-HPF-1 cells assessed as reduction in COL1A1 mRNA expression level at 5 to 20 uM incubated for 48 hrs by quantitative real-time PCR analysis; assay type: functional, cell-based; conditions: dose 5-20 µM
[15] = tested on: CCC-HPF-1; test: Anti-pulmonary fibrosis activity against TGF-beta1 stimulated human CCC-HPF-1 cells assessed as reduction in alpha-SMA protein expression level at 5 to 20 uM incubated for 48 hrs by Western blotting analysis; assay type: functional, cell-based; conditions: dose 5-20 µM
[16] = tested on: LX-2; test: Anti-hepatic fibrosis activity against TGF-beta1 stimulated human LX2 cells assessed as reduction in FN protein expression level at 5 to 20 uM incubated for 48 hrs by Western blotting analysis; assay type: functional, cell-based; conditions: dose 5-20 µM
[17] = tested on: LX-2; test: Anti-hepatic fibrosis activity against TGF-beta1 stimulated human LX2 cells assessed as reduction in FN mRNA expression level at 5 to 20 uM incubated for 48 hrs by quantitative real-time PCR analysis; assay type: functional, cell-based; conditions: dose 5-20 µM
[18] = tested on: LX-2; test: Effect on total Smad2 level in TGF-beta1 stimulated human LX2 cells at 5 to 20 uM incubated for 48 hrs by Western blotting analysis; assay type: functional, cell-based; conditions: dose 5-20 µM
[19] = tested on: LX-2; test: Anti-hepatic fibrosis activity against TGF-beta1 stimulated human LX2 cells assessed as reduction in Smad2 phosphorylation incubated for 48 hrs by Western blotting analysis; assay type: functional, cell-based; conditions: dose 5-20 µM
[20] = tested on: CCC-HPF-1; test: Anti-pulmonary fibrosis activity against TGF-beta1 stimulated human CCC-HPF-1 cells assessed as reduction in FN mRNA expression level at 5 to 20 uM incubated for 48 hrs by quantitative real-time PCR analysis; assay type: functional, cell-based; conditions: dose 5-20 µM
[21] = tested on: LX-2; test: Effect on total Smad3 level in TGF-beta1 stimulated human LX2 cells at 5 to 20 uM incubated for 48 hrs by Western blotting analysis; assay type: functional, cell-based; conditions: dose 5-20 µM
[22] = tested on: LX-2; test: Anti-hepatic fibrosis activity against TGF-beta1 stimulated human LX2 cells assessed as reduction in alpha-SMA mRNA expression level at 5 to 20 uM incubated for 48 hrs by quantitative real-time PCR analysis; assay type: functional, cell-based; conditions: dose 5-20 µM
[23] = tested on: CCC-HPF-1; test: Anti-pulmonary fibrosis activity against TGF-beta1 stimulated human CCC-HPF-1 cells assessed as reduction in FN protein expression level at 5 to 20 uM incubated for 48 hrs by Western blotting analysis; assay type: functional, cell-based; conditions: dose 5-20 µM
[24] = tested on: LX-2; test: Anti-hepatic fibrosis activity against TGF-beta1 stimulated human LX2 cells assessed as reduction in Smad3 phosphorylation incubated for 48 hrs by Western blotting analysis; assay type: functional, cell-based; conditions: dose 5-20 µM
[25] = tested on: CCC-HPF-1; test: Anti-pulmonary fibrosis activity against TGF-beta1 stimulated human CCC-HPF-1 cells assessed as reduction in alpha-SMA mRNA expression level at 5 to 20 uM incubated for 48 hrs by quantitative real-time PCR analysis; assay type: functional, cell-based; conditions: dose 5-20 µM
[26] = tested on: LX-2; test: Anti-hepatic fibrosis activity against TGF-beta1 stimulated human LX2 cells assessed as reduction in COL1A1 mRNA expression level at 5 to 20 uM incubated for 48 hrs by quantitative real-time PCR analysis; assay type: functional, cell-based; conditions: dose 5-20 µM
[27] = tested on: CCC-HPF-1; test: Anti-pulmonary fibrosis activity against TGF-beta1 stimulated human CCC-HPF-1 cells assessed as reduction in Smad3 phosphorylation incubated for 48 hrs by Western blotting analysis; assay type: functional, cell-based; conditions: dose 5-20 µM
[28] = target: T1, Autotaxin; test: Inhibition of human ATX in using LPC as substrate by fluorescence based microplate reader assay

## C[C@H](CCC(=O)N1CCc2nc(NCCc3ccc(Cl)cc3)ncc2C1)[C@H]1CC[C@H]2[C@@H]3[C@@H](O)C[C@@H]4C[C@H](O)CC[C@]4(C)[C@H]3CC[C@]12C
[1]
  Activity: Dose-Dependent Effect
[2]
  Activity: Active
[3]
  Activity: Active
[4]
  Activity: inactive
[5]
  Ratio IC50: 9
[6]
  Activity: Active
[7]
  Activity: Active
[8]
  Activity: Non-Toxic
[9]
  Activity: Active
[10]
  Activity: Active
[11]
  Activity: Active
[12]
  Activity: inactive
[13]
  Activity: Non-Toxic
[14]
  Activity: Active
[15]
  Activity: Active
[16]
  Activity: Active
[17]
  Activity: Active
[18]
  Activity: inactive
[19]
  Activity: Dose-Dependent Effect
[20]
  Activity: Active
[21]
  Activity: inactive
[22]
  Activity: Active
[23]
  Activity: Active
[24]
  Activity: Dose-Dependent Effect
[25]
  Activity: Active
[26]
  Activity: Active
[27]
  Activity: Dose-Dependent Effect
[28]
  pIC50: 8.12
